Data from patent US11420934B2, “PPAR agonists” (Salk Institute for Biological Studies, priority 2013, dated 2022).
Where two headings read alike, the source gives them in different places.

How the values were obtained:
[1] = molecular target: T1, PPARδ (Homo sapiens, UniProt Q03181); experiment: Nuclear Hormone Receptor (NHR) protein interaction assay (PathHunter), agonist format; type: cell-based
T1 construct: expressed in transfected cells; host or cells: PathHunter NHR cell lines
T1 sequence (Q03181 1-441): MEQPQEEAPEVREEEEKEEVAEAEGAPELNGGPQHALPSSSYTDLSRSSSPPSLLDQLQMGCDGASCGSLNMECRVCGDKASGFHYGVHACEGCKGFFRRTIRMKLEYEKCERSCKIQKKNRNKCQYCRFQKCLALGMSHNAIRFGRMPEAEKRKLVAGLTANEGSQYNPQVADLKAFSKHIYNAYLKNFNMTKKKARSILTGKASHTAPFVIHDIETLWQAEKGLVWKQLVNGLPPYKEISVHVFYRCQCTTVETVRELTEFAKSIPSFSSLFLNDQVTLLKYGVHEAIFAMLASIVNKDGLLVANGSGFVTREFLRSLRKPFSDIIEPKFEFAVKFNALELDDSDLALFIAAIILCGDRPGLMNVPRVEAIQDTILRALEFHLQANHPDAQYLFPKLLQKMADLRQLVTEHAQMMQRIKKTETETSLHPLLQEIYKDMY
Description: PathHunter NHR cell lines were expanded from freezer stocks according to standard procedures. Cells were seeded in a total volume of 20 μL into white walled, 384-well microplates and incubated at 37° C. for the appropriate time prior to testing. Assay media contained charcoal-dextran filtered serum to reduce the level of hormones present.
For agonist determination, cells were incubated with sample to induce response. Intermediate dilution of sample stocks was performed to generate 5× sample in assay buffer. 5 μL of 5× sample was added to cells and incubated at 37° C. or room temperature for 3-16 hours. Final assay vehicle concentration was 1%.
Microplates were read following signal generation with a PerkinElmer Envision™ instrument for chemiluminescent signal detection.
Compound activity was analyzed using CBIS data analysis suite (ChemInnovation, CA). For agonist mode assays, percentage activity was calculated using the following formula: % Activity=100%×(mean RLU of test sample−mean RLU of vehicle control)/(mean MAX control ligand−mean RLU of vehicle control).

[2] = system: AKO mice; experiment: GW treatment in mouse model of ALD (AKO mice); type: in vivo
Text: ALD is a rare genetic disorder caused by defects in peroxisomal oxidation of very long-chain fatty acids (VLCFAs), resulting in systemic accumulation of VLCFAs, which causes tissue defects mainly in the central nervous system and the adrenal glands. The majority of VLCFAs in the body are endogenously synthesized from long-chain fatty acids (LCFAs). Therefore, one potential way to prevent VLCFA accumulation in ALD is by inducing mitochondrial LCFA oxidation to reduce the availability of LCFAs for VLCFA biosynthesis. In order to test this, a previously described mouse model of ALD was used, in which the X-linked adrenoleukodystrophy gene abcd1 was systemically ablated and the knockout (AKO) mice faithfully recapitulated the abnormal VLCFA accumulation phenotype seen in ALD patients.
3-month-old AKO mice were treated with or without GW and their tissues collected for free FA analysis using GC/MS.

[3] = type: in vitro ADME
[4] = system: FGF1a promoter; experiment: Luciferase reporter assay of FGF1a promoter co-transfected with PPARδ; type: cell-based; settings: with ligand
[5] = Pharmacokinetics in CD-1 mice; type: in vivo
Description: (§1) In this example, the PK profile of several PPARδ agonists disclosed herein in male CD-1 mice or Wistar rats was determined. Similar methods can be used to analyze other compounds provided herein.
(§2) (quantity sufficient i.e. made up to a final volume of 100% with water). All compounds were separately administered to CD-1 mice at 3 mg/kg iv or 10 mg/kg po.
(§3) The concentration of the compound in plasma was determined, as illustrated in FIGS. 9A-9E.

[6] = Pharmacokinetics in Wistar rats; type: in vivo; settings: male Wistar rats
Description: as §1, §2, §3

[7] = system: thermal injury to the TA; experiment: Muscle regeneration after thermal (freeze burn) injury to the TA, oral GW501516; type: in vivo, C57BL6J mice
Description: A stainless steel […] (Mettler-Toledo) equilibrated to the temperature of dry ice was placed directly on the exposed TA for 10 seconds. Following the thermal injury, incision was closed using VetBond (3M). All injury procedures were performed on the left leg, and the right leg was used as control.
Sterile 1% w/v Evans Blue dye in PBS was intraperitoneally injected at 1% volume relative to the body mass of an animal. 7 hours after the injection, injured TA muscles were harvested and snap-frozen by isopentane quenching in liquid nitrogen. Frozen sections were cut in 10 μm thickness, fixed in ice-cold acetone, dipped in xylene and mounted with DPX. Proportion of the stained area over the total area was measured using ImageJ software.
50 mg/kg body weight of BrdU (Sigma) was injected intraperitoneally as solution of 10 mg/mL BrdU in saline. TA muscles were harvested at 7 days after injury and processed for paraffin sections as described above. BrdU incorporation was visualized using the BrdU Labeling and Detection Kit I (Roche) and BrdU+ nuclei were counted and represented as a proportion of total nuclei in a field.
Whole or partial tissues were homogenized by Polytron probe homogenizer in Trizol reagent (Invitrogen). Total RNA was extracted from the homogenates according to the manufacturer's protocol. 1 μg of DNase-treated total RNA was reverse transcribed using Superscript II Reverse Transcriptase (Invitrogen) according to the manufacturer's instructions. cDNAs were diluted 1/40 with ddH2O and used as templates in RT-QPCR reactions with SYBRGreenER qPCR SuperMix detection system (Invitrogen). Samples were prepared in technical triplicates and relative mRNA levels were calculated by using the standard curve methodology and normalized against GAPDH mRNA levels in the same samples.

[8] = Tables 7-16, read-out: NHR protein interaction assay, EC50 (nM) for PPARδ

EC50 [1] | EC50 [1, 8] | Structure (SMILES) | other results
19.4 nM | – | CC(C)N(Cc1cccnc1OCCCCCC(=O)O)C(=O)c1ccc(-c2ccco2)cc1 [compound 207] | –
206 nM | – | CC(C)N(Cc1ccccc1OCCCCCC(=O)O)C(=O)c1ccc(-c2ccco2)cn1 [compound 153] | –
– | 352 nM | CC(C)N(Cc1ccccc1OCCCCCC(=O)O)C(=O)c1ccc(N2CCCC2)cc1 [compound 136] | –
> 10000 nM | – | CC(C)N(Cc1ccccc1OCCCCCC(=O)O)C(=O)c1ccc(OC2CC2)cc1 [compound 134] | –
338 nM | – | CC(C)N(Cc1ccccc1OCCCCc1nn[nH]n1)C(=O)c1ccc(-c2ccco2)cc1 [compound 219] | –
26.1 nM | – | CC(C)N(Cc1ccccc1OCCCCCC(=O)O)C(=O)c1ccc(-c2ccco2)nc1 [compound 155] | –
– | 291 nM | CC(C)N(Cc1ccccc1OCCCCCC(=O)O)C(=O)c1ccc(Cl)cc1 [Compd 125] | –
– | – | Cc1cc(SCc2sc(-c3ccc(C(F)(F)F)cc3)nc2C)ccc1OCC(=O)O [GW] | liver C26:0 ([2]; 8 weeks of GW treatment): cleared in most GW-treated animals; levels of VLCFAs (C22:0, C23:0, C24:0, C26:0) in AKO brain and liver ([2]; 8 weeks of GW treatment, GC/MS): significantly reduced; expression of mitochondrial FA oxidation genes (Cpt1a, 1b, Slc25a20, Acadl) in AKO liver and skeletal muscle ([2]; GW treatment): dramatically induced; saturated LCFAs C12:0 to C22:0 and total FAs in liver and muscle ([2]; GW treatment): significantly reduced
224 nM | – | CC(C)N(Cc1cc(C#N)ccc1OCCCCCC(=O)O)C(=O)c1ccc(-c2ccco2)cc1 [compound 205] | –
1300 nM | – | CC(C)N(Cc1ccccc1OCCCOCC(=O)O)C(=O)c1ccc(-c2ccco2)cc1 [compound 221] | –
– | 5.1 nM | COc1ccc(OCCCCCC(=O)O)c(CN(C(=O)c2ccc(-c3ccco3)cc2)C(C)C)c1 [compound 206] | –
– | 5070 nM | CC(=O)c1ccc(C(=O)N(Cc2ccccc2OCCCCCC(=O)O)C(C)C)cc1 [compound 129] | –
143 nM | – | CC(C)N(Cc1ccccc1OCCCCCC(=O)O)C(=O)c1cnc(-c2ccco2)s1 [compound 156] | –
> 10000 nM | – | CC(C)N(Cc1ccccc1OCCCCCC(=O)O)C(=O)c1ccc(S(C)(=O)=O)cc1 [compound 130] | –
– | 18.8 nM | O=C(O)CCCCCOc1ccccc1CN(Cc1ccccc1)C(=O)c1ccc(-c2ccco2)cc1 [compound 247] | –
– | 894 nM | CC(C)N(Cc1ccccc1OCCCCCC(=O)O)C(=O)c1ccc(C#N)cc1 [compound 151] | –
– | 1610 nM | Cc1ccc(C(=O)N(Cc2ccccc2OCCCCCC(=O)O)C(C)C)cc1 [Compd 131] | –

EC50 [1] | EC50 [1, 8] | Structure (SMILES) | other results
> 10000 nM | – | CC(C)N(C(=O)Cc1ccccc1OCCCCCC(=O)O)c1ccc(-c2ccco2)cc1 [compound 158] | –
– | 21.1 nM | CN(Cc1ccccc1OCCCCCC(=O)O)C(=O)c1ccc(C#CC2CC2)cc1 [compound 248] | –
– | – | Cc1cc(SCc2sc(-c3ccc(C(F)(F)F)cc3)nc2C)ccc1OCC(=O)O [GW501516] | % Parent remained at 15 min, MLM [3]: 93/76%; % Parent remained at 60 min, MLM [3]: 93/76%; induction of FGF1a (luciferase reporter) [4]: induction of FGF1a; Kel ([5]; 3 mg/Kg i.v.): 0.11 h⁻¹; F ([5]; 10 mg/Kg p.o.): 82.1%; Kel ([6]; 3 mg/Kg i.v.): 0.09 h⁻¹; F ([6]; 10 mg/Kg p.o.): ~100%; Evans Blue dye uptake, proportion of muscle cross sectional area (CSA) stained ([7]; 5 mg/kg orally, 4 days prior to and 5 days after injury, 5 days after the injury, vehicle 7.6%): 4.9%; expression of inflammatory marker genes by QPCR ([7]; 3 days after the injury): significantly reduced; reduction in the proportion of stained area ([7]; 5 days after the injury, versus vehicle): 34.7%; PPARδ target genes (PDK4, CPT1b, catalase) expression in TA by QPCR ([7]; 9 day treatment): Up-regulation; number of quiescent satellite cells ([7]; after 9 days or 4 weeks of ligand treatment): an increase in the number of quiescent satellite cells was not observed
– | 44.6 nM | CC(C)N(Cc1ccccc1OCCCCCC(=O)O)C(=O)c1ccc(OC(F)(F)F)cc1 [compound 127] | –
– | 5390 nM | CC(C)N(Cc1ccccc1OCCCCCC(=O)O)C(=O)c1ccc(N(C)C)cc1 [Compd 128] | –
– | 512 nM | CC(C)N(Cc1ccccc1OCCCCCCC(=O)O)C(=O)c1ccc(-c2ccco2)cc1 [compound 220] | –
> 10000 nM | – | CC(C)N(Cc1ccc(-c2ccco2)cc1)C(=O)c1ccccc1OCCCCCC(=O)O [compound 157] | –
– | 24.6 nM | CC(C)N(Cc1cc(F)ccc1OCCCCCC(=O)O)C(=O)c1ccc(-c2ccco2)cc1 [compound 204] | –
– | 7.1 nM | Cc1ccc(OCCCCCC(=O)O)c(CN(C(=O)c2ccc(-c3ccco3)cc2)C(C)C)c1 [compound 203] | –
12.1 nM | – | O=C(O)CCCCCOc1ccccc1CN(CC(F)(F)F)C(=O)c1ccc(-c2ccco2)cc1 [compound 177] | –
– | 2180 nM | CC(C)N(Cc1ccccc1OCCCCCC(=O)O)C(=O)c1ccc(F)cc1 [compound 132] | –
485 nM | – | O=C(O)CCCCCOc1ccccc1CNC(=O)c1ccc(-c2ccco2)cc1 [compound 179] | –
– | 1300 nM | COc1ccc(C(=O)N(Cc2ccccc2OCCCCCC(=O)O)C(C)C)cc1 [compound 126] | –
79.4 nM | – | COCCN(Cc1ccccc1OCCCCCC(=O)O)C(=O)c1ccc(-c2ccco2)cc1 [compound 178] | –
– | 10.5 nM | CC(C)N(Cc1ccccc1OCCCCCC(=O)O)C(=O)c1ccc(C#CC2CC2)cc1 [Compd 245] | –
> 10000 nM | – | CC(C)N(Cc1ccccc1OCCCCCC(=O)O)S(=O)(=O)c1ccc(-c2ccco2)cc1 [compound 152] | –

Structure (SMILES) | EC50 [1] | EC50 [1, 8] | other results
CC(C)N(Cc1cc(Br)ccc1OCCCCCC(=O)O)C(=O)c1ccc(-c2ccco2)cc1 [compound 202] | – | 7.3 nM | –
